Data on ten compounds can be found in paper PMC2920549, “Bromopyrrole Alkaloids as Lead Compounds against Protozoan Parasites” (Marine Drugs, 2010).

Data set [1] has as its system T. b. rhodesiense STIB 900 bloodstream forms. The data set can be described thus: Activity against Trypanosoma brucei rhodesiense (resazurin assay). It counts as cell-based. The conditions noted are these: for IC50: Trypanosoma brucei, read-out: IC50 T. b. rhodesiense. On the procedure:
(§1) The toxicity on mammalian cells was assessed against L6 cells, a primary cell line derived from rat skeletal myoblasts.
STIB 900 strain of T. b. rhodesiense and the standard drug melarsoprol were used for the assay. […] Data were analyzed using the microplate reader software Softmax Pro (Molecular Devices Cooperation, Sunnyvale, CA, USA).
(The colour change of resazurin is a common sign of viable cells or microbes.)

The test system of data set [2] is T. cruzi Tulahuen strain C2C4 intracellular amastigotes in L6 rat skeletal myoblasts. Kind of data set: Activity against Trypanosoma cruzi (beta-galactosidase/CPRG assay in L6 cells). It counts as cell-based. The conditions noted are these: for IC50: Trypanosoma cruzi, TULAHUEN, L6, 96 h; for IC50 T. cruzi: 96 h. Here is the method:
Then the substrate CPRG/Nonidet (50 μl) was added to all wells. A color reaction developed within 2–6 h and could be read photometrically at 540 nm. Data were transferred into the graphic programme Softmax Pro (Molecular Devices), which calculated IC50 values. […] Benznidazole was the standard drug used.

Data set [3] relates to L. donovani strain MHOM/ET/67/L82 axenic amastigotes. Kind of data set: Activity against Leishmania donovani (axenic amastigotes, resazurin). The conditions noted are these: for IC50: Leishmania donovani, read-out: IC50 L. donovani; for IC50 / IC50 L. donovani: 72 h. It counts as cell-based. On the procedure:
as §1
Amastigotes of L. donovani strain MHOM/ET/67/L82 were grown in axenic culture at 37 °C in SM medium at pH 5.4 supplemented with 10% heat-inactivated fetal bovine serum under an atmosphere of 5% CO2 in air. One hundred μL of culture medium with 10^5 amastigotes from axenic culture with or without a serial drug dilution were seeded in 96-well microtiter plates. […] Data were analyzed using the software Softmax Pro. Decrease of fluorescence (=inhibition) was expressed as percentage of the fluorescence of control cultures and plotted against the drug concentrations. From the sigmoidal inhibition curves the IC50 values were calculated. […] Miltefosine was used as a reference drug.

Data set [4] concerns P. falciparum K1 strain erythrocytic stages. Kind of data set: Activity against Plasmodium falciparum ([3H]-hypoxanthine incorporation). It counts as cell-based. The conditions noted are these: for Selectivity index (CC50 L6 / IC50 parasite) for P. falciparum: CC50 L6 cells divided by IC50 P. falciparum; for IC50 P. falciparum: K1 strain; for IC50: Plasmodium falciparum. On the procedure: as §1
The radioactivity was counted using a Betaplate^TM liquid scintillation counter (Wallac, Zurich, Switzerland). […] IC50 values were calculated from graphically plotted dose-response curves.

Data set [5] is described as follows: Cytotoxicity against L6-cells (resazurin). The conditions noted are these: rat. It counts as cell-based, rat. On the procedure:
as §1
(§2) Assays were performed in 96-well microtiter plates, each well containing 100 μL of RPMI 1640 medium supplemented with 1% L-glutamine (200 mM) and 10% fetal bovine serum, and 4 × 10^4 L-6 cells (a primary cell line derived from rat skeletal myoblasts). Serial drug dilutions of seven 3-fold dilution steps covering a range from 90 to 0.123 μg/mL were prepared. After 72 h of incubation the plates were inspected under an inverted microscope to assure growth of the controls and sterile conditions. 10 μl of a resazurin solution (12.5 mg resazurin dissolved in 100 mL distilled water) was then added to each well and the plates incubated for another 2 h. Then the plates were read with a Spectramax Gemini XS microplate fluorometer using an excitation wavelength of 536 nm and an emission wavelength of 588 nm. Data were analyzed using the microplate reader software Softmax Pro. Each CC50 value obtained is the mean of at least two separate experiments performed in duplicate. Podophyllotoxin was the standard drug used.

In another data set the test system is L6 cells. Kind of data set: Cytotoxicity against L6-cells (resazurin). The class given is cell-based, rat. The conditions noted are these: 72 h. On the procedure: as §1, §2
The target in data set [6] is T1, PfFabZ (β-hydroxyacyl-ACP dehydratase) (Plasmodium falciparum, UniProt Q965D7).
T1 construct: made in house
T1 sequence (Q965D7 19-230): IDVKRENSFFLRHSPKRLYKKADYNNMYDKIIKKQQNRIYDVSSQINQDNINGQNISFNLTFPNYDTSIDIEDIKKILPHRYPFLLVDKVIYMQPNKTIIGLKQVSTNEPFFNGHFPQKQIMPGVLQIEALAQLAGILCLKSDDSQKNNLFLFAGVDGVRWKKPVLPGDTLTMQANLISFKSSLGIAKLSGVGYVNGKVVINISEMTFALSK
The data set can be described thus: biochemical.
Method: Expression and purification of the PfFab enzymes as well as the assays were performed as described [29]. […] Measurements were carried out in Nundron Surface sterile 96-well plates, using 20 mM Hepes and 150 mM NaCl at pH 7.4. Compounds were dissolved in DMSO (maximum final concentration 1%). A dilution series of 50 μg/mL to 0.0005 μg/mL of dissolved compounds was measured. For PfFabI, 400 μM NADH (cofactor, Sigma) was added to 2 μg enzyme and reaction started by addition of 300 μM crotonyl-CoA (substrate, Sigma). The change of absorbance of the mixture was recorded spectrophotometrically at 340 nm for 40 minutes. Triclosan was used as a positive control and was analyzed the same way. For PfFabG 400 μM NADPH (cofactor, Fluka) was added to 0.5 μg enzyme and reaction started by addition of 300 μM acetoacetyl-CoA (substrate, Sigma). The change of absorbance of the mixture was recorded spectrophotometrically at 340 nm for 20 minutes. (-)-Epigallocatechin gallate (Sigma) was used as a positive control and was analyzed the same way. For PfFabZ, 600 μM crotonoyl-CoA (substrate, Sigma) was added to 0.5 μg enzyme. The change of absorbance of the mixture was recorded spectrophotometrically at 260 nm for 20 minutes. (−)-Epigallocatechin gallate was used as a positive control. IC50 values were estimated from graphically plotted dose-response curves. […]

Setting [7] is: STIB 900 bloodstream forms, 72 h.
Setting [8] is: K1, K1 strain, erythrocytic stage, read-out: IC50 P. falciparum.
The mark [9] stands for this setting: K1, read-out: IC50 P. falciparum.

≈ marks a conversion by molar mass, not a printed value. Where two headings read alike, the source gives them in different places. Marks after values point to notes of the source that are not given here. Bounds are passed on as bounds.

On to `NC1=NC(=O)/C(=C/CCNC(=O)c2cc(Br)c[nH]2)N1` [Compound 3, dispacamide B], for which the IC50 (as a rule, the midpoint of a concentration-inhibition curve) was 40.1 µg/mL (≈ 123 µM) in data set [1] (setting [7]), above 90 µg/mL in data set [2], above 90 µg/mL in data set [3] (axenic amastigotes) and 1.09 µg/mL (≈ 3.34 µM) in data set [4] (setting [8]). Moreover, the “IC50 L. donovani” value in data set [3] (axenic amastigotes) is “completely inactive”. Moreover, in data set [4], the “Selectivity index (CC50 L6 / IC50 parasite) for P. falciparum” value is listed as above 67.2. In addition, the “IC50 P. falciparum” value in data set [4] (erythrocytic stage) turned out to be 1.34 µg/mL (≈ 4.11 µM). Further, in data set [5], the CC50 (commonly the concentration that lowers cell viability or growth by half) at 72 h was above 90 µg/mL. The “CC50 Cytotoxicity L6 cells” value with L6 cells is “devoid of any cytotoxicity”.
For the compound `Nc1ncc(/C=C/CNC(=O)c2cc(Br)c[nH]2)[nH]1` [Compound 2, hymenidin], the results for the IC50 in data set [1] (setting [7]), in data set [3] (axenic amastigotes) and in data set [4] (setting [8]) were 77.6 µg/mL (≈ 250 µM), 29.9 µg/mL (≈ 96.3 µM) and 12.5 µg/mL (≈ 40.4 µM), respectively. The same compound yielded a CC50 at 72 h in data set [5] of 75.7 µg/mL (≈ 244 µM).
On to `O=C1CCNC(=O)c2[nH]c(Br)cc21` [Compound 7, bromoaldisin], for which the 50% inhibitory concentration (IC50) in data set [1] (setting [7]) was 61.5 µg/mL (≈ 253 µM); in data set [2], above 90 µg/mL; in data set [3] (axenic amastigotes), above 90 µg/mL; in data set [4] (setting [8]), above 20 µg/mL. The compound also came in with a CC50 at 72 h in data set [5] above 90 µg/mL.
As for `CCN(CC)CCCC(C)Nc1ccnc2cc(Cl)ccc12` (centres unmarked) [Chloroquine, reference compound], the concentration for half-maximal inhibition (IC50) in data set [4] (setting [9]) amounted to 0.065 µg/mL (≈ 0.203 µM).
`O=C(O[C@@H]1Cc2c(O)cc(O)cc2O[C@@H]1c1cc(O)c(O)c(O)c1)c1cc(O)c(O)c(O)c1` [(−)-epigallocatechin gallate, reference compound]: in data set [6], the IC50 was 698 nM.
Consider `CCCCCCCCCCCCCCCCOP(=O)([O-])OCC[N+](C)(C)C` [Miltefosine, reference compound], for which, in data set [3] (axenic amastigotes), the IC50 is 0.21 µg/mL (≈ 0.515 µM) and the “IC50 L. donovani” value is listed as 0.206 ^c μg/mL.
In the case of agelongine [Compound 14], in data set [1] (setting [7]), the “IC50 T. b. rhodesiense” value was determined as 49.96 µg/mL. The “IC50 T. cruzi” value in data set [2] is above 90 µg/mL. Besides, in data set [3] (axenic amastigotes), the “IC50 L. donovani” value came to 43.22 µg/mL. Further, the “IC50 P. falciparum” value in data set [4] (erythrocytic stage) is 11.18 µg/mL. Besides, the “CC50 Cytotoxicity L6 cells” value in the data set on L6 cells was above 90 µg/mL.
For `Nc1nc([C@H]2[C@H](CNC(=O)c3cc(Br)c[nH]3)[C@@H](CNC(=O)c3cc(Br)c[nH]3)[C@@H]2c2c[nH]c(N)n2)c[nH]1` [Compound 10, sceptrin], the IC50 was 9.71 µg/mL (≈ 15.7 µM) in data set [1] (setting [7]), above 33 µg/mL in data set [2], 51.6 µg/mL (≈ 83.2 µM) in data set [3] (axenic amastigotes) and 11.1 µg/mL (≈ 17.9 µM) in data set [4] (setting [8]). In addition, in data set [2], the “IC50 T. cruzi” value is 60.08 µg/mL (≈ 96.9 µM). The same compound yielded a half-maximal cytotoxic concentration (CC50) at 72 h in data set [5] above 90 µg/mL.
On to `Nc1nc(N)nc(Nc2ccc([As]3SCC(CO)S3)cc2)n1` (centres unmarked) [Melarsoprol, reference compound], for which the half-inhibitory concentration (IC50) in data set [1] (72 h) is 0.004 µg/mL.
For `NCC1C2CN3C(=O)c4cc(Br)c(Br)n4C4N=C(N)NC43C2C2(N=C(N)NC2O)C1Cl` (centres unmarked) [Compound 11, dibromopalau’amine], the “Selectivity index (CC50 L6 / IC50 parasite) for T. brucei rhodesiense” value in data set [1] (CC50 L6 cells divided by IC50 T. b. rhodesiense) is given as “about 10”. The IC50 in data set [1] (setting [7]) stood at 0.46 µg/mL (≈ 0.796 µM); in data set [3], 1.09 µg/mL (≈ 1.89 µM); in data set [4] (setting [9]), 1.48 µg/mL (≈ 2.56 µM). Moreover, the “Selectivity index (CC50 L6 / IC50 parasite) for L. donovani” value in data set [3] (CC50 L6 cells divided by IC50 L. donovani) is 3–4. Further, the “Selectivity index (CC50 L6 / IC50 parasite) for P. falciparum” value in data set [4] was 3–4. Also, the CC50 at 72 h in data set [5] (72 h, read-out: CC50 Cytotoxicity L6 cells) was found to be 4.46 µg/mL (≈ 7.72 µM).
